# Measured values reported in ChEMBL document CHEMBL1909046, “DrugMatrix in vitro pharmacology data”.
# What was measured:
# [1] = molecular target: cGMP-specific 3',5'-cyclic phosphodiesterase (Homo sapiens, UniProt O76074); assay: DRUGMATRIX: Phosphodiesterase PDE5 enzyme inhibition (substrate: [3H]cGMP + cGMP); type: tissue-based, Platelet; conditions: platelet; Not Active = under 50% inhibition at 10 µM
# [2] = molecular target: T1, Alpha-2A adrenergic receptor (Homo sapiens, UniProt P08913); type: cell membranes, Sf9, Membrane; conditions: sf9; note: in other assays of this panel Not Active means under 50% inhibition at 10 µM
# T1 sequence (P08913 whole entry): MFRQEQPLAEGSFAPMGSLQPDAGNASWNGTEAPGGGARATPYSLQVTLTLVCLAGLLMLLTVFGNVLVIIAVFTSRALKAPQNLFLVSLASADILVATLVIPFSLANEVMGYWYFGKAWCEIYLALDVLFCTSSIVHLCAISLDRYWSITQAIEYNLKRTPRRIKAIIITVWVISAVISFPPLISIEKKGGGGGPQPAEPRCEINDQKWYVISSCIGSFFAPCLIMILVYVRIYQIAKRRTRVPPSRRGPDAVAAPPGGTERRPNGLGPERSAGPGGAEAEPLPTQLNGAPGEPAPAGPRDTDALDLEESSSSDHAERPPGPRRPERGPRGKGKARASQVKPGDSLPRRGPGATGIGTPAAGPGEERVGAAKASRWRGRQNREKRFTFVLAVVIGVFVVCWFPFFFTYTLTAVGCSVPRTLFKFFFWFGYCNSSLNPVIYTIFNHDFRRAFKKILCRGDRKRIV
# [3] = molecular target: D(1A) dopamine receptor (Homo sapiens, UniProt P21728); assay: DRUGMATRIX: Dopamine D1 radioligand binding (ligand: [3H] SCH-23390); type: cell membranes, CHO, Membrane; conditions: cho; Not Active = under 50% inhibition at 10 µM
# D(1A) dopamine receptor, sequence (P21728 whole entry): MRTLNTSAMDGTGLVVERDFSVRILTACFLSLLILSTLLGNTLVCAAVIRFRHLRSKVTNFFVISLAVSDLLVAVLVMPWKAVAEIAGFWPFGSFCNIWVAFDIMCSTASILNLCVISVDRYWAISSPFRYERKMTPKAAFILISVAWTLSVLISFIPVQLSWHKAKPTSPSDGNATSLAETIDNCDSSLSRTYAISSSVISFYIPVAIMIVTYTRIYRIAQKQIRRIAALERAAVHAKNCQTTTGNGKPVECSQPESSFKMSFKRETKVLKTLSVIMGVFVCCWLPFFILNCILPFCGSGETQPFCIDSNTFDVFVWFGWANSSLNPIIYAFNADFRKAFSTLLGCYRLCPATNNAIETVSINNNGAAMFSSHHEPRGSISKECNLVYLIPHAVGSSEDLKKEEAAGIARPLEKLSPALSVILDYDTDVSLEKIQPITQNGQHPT
# [4] = molecular target: T2, Cytochrome P450 1A2 (Homo sapiens, UniProt P05177); conditions: bti-tn-5b1-4; note: in other assays of this panel Not Active means under 50% inhibition at 10 µM
# T2 sequence (P05177 whole entry): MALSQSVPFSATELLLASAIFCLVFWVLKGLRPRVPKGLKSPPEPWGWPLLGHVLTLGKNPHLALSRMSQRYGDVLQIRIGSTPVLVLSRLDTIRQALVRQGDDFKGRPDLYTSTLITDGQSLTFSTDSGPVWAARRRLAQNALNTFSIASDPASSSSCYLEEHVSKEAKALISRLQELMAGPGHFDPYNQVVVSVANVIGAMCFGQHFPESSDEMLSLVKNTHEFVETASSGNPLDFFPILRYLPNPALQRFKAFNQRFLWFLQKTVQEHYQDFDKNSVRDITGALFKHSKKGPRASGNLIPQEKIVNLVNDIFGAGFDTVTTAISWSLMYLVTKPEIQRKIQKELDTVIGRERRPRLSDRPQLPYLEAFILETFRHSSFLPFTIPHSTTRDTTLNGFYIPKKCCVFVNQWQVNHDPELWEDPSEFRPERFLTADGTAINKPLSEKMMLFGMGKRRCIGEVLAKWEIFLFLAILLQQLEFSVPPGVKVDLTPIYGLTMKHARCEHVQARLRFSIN
# [5] = molecular target: T3, Alpha-1B adrenergic receptor (Rattus norvegicus, UniProt P15823); assay: DRUGMATRIX: Alpha-1B adrenergic receptor radioligand binding (ligand: prazosin); type: cell membranes, Wistar, Liver, Membrane; conditions: Not Active = under 50% inhibition at 10 µM
# T3 sequence (P15823 whole entry): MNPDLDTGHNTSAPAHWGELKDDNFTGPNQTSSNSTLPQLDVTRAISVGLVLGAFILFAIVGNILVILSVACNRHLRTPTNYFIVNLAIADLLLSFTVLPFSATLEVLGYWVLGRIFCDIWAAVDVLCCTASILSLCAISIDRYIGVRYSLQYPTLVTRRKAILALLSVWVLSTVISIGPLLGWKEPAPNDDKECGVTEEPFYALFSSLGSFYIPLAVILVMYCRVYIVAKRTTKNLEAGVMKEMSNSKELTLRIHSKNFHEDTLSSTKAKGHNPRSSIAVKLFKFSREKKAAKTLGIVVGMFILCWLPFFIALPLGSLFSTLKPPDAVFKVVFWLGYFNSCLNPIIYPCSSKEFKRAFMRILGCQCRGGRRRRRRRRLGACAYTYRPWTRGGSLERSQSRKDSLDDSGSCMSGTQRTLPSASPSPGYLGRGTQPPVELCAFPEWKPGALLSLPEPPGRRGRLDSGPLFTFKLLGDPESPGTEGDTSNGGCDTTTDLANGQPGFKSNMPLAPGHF
# [6] = molecular target: Glycine receptor (Rattus norvegicus, UniProt P22771+P24524+P07727+P20781); type: cell membranes, Wistar, Spinal cord, Membrane; note: in other assays of this panel Not Active means under 50% inhibition at 10 µM
# [7] = molecular target: Voltage-gated inwardly rectifying potassium channel KCNH2 (Homo sapiens, UniProt Q12809); conditions: hek293; note: in other assays of this panel Not Active means under 50% inhibition at 10 µM
# Voltage-gated inwardly rectifying potassium channel KCNH2, sequence (Q12809 whole entry): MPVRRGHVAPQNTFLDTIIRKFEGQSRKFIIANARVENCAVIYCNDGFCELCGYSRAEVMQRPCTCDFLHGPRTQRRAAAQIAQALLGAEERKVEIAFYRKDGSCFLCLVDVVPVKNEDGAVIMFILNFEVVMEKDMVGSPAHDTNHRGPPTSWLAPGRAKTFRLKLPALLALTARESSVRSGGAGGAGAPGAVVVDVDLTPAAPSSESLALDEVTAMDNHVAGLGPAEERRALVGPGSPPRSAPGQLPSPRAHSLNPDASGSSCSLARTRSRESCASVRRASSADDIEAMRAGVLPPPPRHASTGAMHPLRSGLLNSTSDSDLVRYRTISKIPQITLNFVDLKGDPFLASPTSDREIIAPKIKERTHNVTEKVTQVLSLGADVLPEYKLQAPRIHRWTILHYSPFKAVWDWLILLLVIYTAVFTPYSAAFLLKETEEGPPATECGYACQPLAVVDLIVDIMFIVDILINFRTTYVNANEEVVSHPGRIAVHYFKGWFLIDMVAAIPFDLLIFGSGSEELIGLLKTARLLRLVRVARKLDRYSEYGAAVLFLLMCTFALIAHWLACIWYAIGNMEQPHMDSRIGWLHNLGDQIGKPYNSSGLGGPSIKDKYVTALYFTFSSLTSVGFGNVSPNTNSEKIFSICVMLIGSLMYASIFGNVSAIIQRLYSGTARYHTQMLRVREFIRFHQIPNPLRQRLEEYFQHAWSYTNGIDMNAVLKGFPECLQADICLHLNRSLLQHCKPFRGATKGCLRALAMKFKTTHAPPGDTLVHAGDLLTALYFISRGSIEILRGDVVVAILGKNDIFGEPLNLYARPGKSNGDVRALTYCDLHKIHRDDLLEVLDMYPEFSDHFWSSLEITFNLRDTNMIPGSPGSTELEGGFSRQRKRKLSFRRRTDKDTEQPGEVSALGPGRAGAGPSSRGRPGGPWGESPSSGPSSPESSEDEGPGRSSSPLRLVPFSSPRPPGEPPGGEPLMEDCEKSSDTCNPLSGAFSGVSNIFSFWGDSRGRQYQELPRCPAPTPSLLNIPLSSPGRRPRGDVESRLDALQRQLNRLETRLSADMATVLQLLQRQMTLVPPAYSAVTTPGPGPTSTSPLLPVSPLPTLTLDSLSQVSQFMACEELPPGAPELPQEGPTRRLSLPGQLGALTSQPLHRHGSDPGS
# [8] = molecular target: T4, 3-hydroxy-3-methylglutaryl-coenzyme A reductase (Homo sapiens, UniProt P04035); design: species or system Escherichia coli
# T4 sequence (P04035 whole entry): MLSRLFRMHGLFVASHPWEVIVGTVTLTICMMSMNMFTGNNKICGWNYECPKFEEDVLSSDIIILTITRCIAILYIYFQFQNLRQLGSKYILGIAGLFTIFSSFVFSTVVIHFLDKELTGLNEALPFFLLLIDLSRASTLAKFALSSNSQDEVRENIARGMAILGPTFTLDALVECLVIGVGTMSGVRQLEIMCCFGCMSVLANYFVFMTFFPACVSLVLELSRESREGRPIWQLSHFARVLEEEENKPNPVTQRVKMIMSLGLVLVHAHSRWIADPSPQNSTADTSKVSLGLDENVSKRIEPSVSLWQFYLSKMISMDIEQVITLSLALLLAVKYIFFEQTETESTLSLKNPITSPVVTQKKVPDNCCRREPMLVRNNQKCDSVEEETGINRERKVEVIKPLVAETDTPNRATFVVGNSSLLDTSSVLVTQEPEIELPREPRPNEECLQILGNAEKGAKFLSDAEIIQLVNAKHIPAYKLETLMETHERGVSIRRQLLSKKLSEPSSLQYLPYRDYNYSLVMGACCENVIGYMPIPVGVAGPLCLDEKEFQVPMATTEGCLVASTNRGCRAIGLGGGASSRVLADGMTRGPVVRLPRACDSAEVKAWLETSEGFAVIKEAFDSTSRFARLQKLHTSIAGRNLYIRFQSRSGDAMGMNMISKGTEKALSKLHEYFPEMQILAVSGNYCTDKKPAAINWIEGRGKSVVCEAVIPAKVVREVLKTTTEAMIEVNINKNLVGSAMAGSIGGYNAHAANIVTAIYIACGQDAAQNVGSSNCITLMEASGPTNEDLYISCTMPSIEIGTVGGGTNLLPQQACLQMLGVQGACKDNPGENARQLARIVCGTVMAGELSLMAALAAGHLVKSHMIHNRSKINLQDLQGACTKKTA
# [9] = molecular target: Protein kinase C alpha type (Homo sapiens, UniProt P17252); type: cell-based; conditions: sf9
# [10] = molecular target: Cytochrome P450 2E1 (Homo sapiens, UniProt P05181); conditions: bti-tn-5b1-4; note: in other assays of this panel Not Active means under 50% inhibition at 10 µM
# Cytochrome P450 2E1, sequence (P05181 whole entry): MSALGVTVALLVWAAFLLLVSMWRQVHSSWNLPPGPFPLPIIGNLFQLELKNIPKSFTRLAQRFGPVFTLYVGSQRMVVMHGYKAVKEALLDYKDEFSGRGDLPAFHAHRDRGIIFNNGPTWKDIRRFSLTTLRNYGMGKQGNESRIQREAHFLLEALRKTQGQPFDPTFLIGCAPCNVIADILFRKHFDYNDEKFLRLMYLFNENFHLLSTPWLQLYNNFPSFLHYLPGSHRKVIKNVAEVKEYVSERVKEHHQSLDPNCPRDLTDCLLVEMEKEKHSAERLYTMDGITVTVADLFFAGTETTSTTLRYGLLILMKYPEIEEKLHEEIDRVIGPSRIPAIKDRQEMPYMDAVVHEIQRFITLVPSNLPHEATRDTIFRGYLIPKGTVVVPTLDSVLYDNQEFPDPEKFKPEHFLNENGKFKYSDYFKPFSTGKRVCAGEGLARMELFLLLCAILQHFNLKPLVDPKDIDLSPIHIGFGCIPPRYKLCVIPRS
SMILES,IC50 [1],IC50 [2],IC50 [3],IC50 [4],Ki [4],IC50 [5],IC50 [6],IC50 [7],Ki [7],IC50 [8],IC50 [9],IC50 [10],Ki [10],IC50 ([8]; read-out: IC50)
CC(=O)O[C@]1(C(C)=O)CC[C@H]2[C@@H]3C=C(Cl)C4=CC(=O)CC[C@]4(C)[C@H]3CC[C@@]21C [CHLORMADINONE ACETATE],Not Active,Not Active,Not Active,Not Active,Not Active,Not Active,Not Active,Not Active,Not Active,Not Active,Not Active,Not Active,Not Active,–
C[C@]12CCC(=O)C=C1CC[C@@H]1[C@@H]2C(=O)C[C@@]2(C)[C@H]1CC[C@]2(O)C(=O)CO [CORTISONE],Not Active,Not Active,Not Active,Not Active,Not Active,Not Active,Not Active,Not Active,Not Active,Not Active,Not Active,Not Active,Not Active,–
Brc1ccccc1 [BROMOBENZENE],Not Active,Not Active,Not Active,Not Active,Not Active,Not Active,Not Active,Not Active,Not Active,Not Active,Not Active,Not Active,Not Active,–
O=C1NC(=O)C(c2ccccc2)(c2ccccc2)N1 [PHENYTOIN],Not Active,Not Active,Not Active,Not Active,Not Active,Not Active,Not Active,Not Active,Not Active,Not Active,Not Active,Not Active,Not Active,–
C=C(C)[C@@H]1[C@H]2OC(=O)[C@@H]1[C@]1(O)C[C@H]3O[C@]34C(=O)O[C@H]2[C@]14C [PICROTOXININ],Not Active,Not Active,Not Active,Not Active,Not Active,Not Active,Not Active,Not Active,Not Active,Not Active,Not Active,Not Active,Not Active,–
CC(=O)[C@@]1(O)CC[C@H]2[C@@H]3C[C@H](C)C4=CC(=O)C=C[C@]4(C)[C@@]3(F)[C@@H](O)C[C@@]21C [FLUOROMETHOLONE],Not Active,Not Active,Not Active,Not Active,Not Active,Not Active,Not Active,Not Active,Not Active,Not Active,Not Active,Not Active,Not Active,–
Nc1nc2c(ncn2COC(CO)CO)c(=O)[nH]1 [GANCICLOVIR],Not Active,Not Active,Not Active,Not Active,Not Active,Not Active,Not Active,Not Active,Not Active,Not Active,Not Active,Not Active,Not Active,–
O=C1CCc2cc(OCCCCc3nnnn3C3CCCCC3)ccc2N1 [CILOSTAZOL],Not Active,Not Active,Not Active,Not Active,Not Active,Not Active,Not Active,Not Active,Not Active,Not Active,Not Active,Not Active,Not Active,–
COCc1c(C(C)C)nc(C(C)C)c(/C=C/[C@@H](O)C[C@@H](O)CC(=O)O)c1-c1ccc(F)cc1 [CERIVASTATIN],Not Active,Not Active,Not Active,Not Active,Not Active,Not Active,Not Active,Not Active,Not Active,–,Not Active,Not Active,Not Active,0.085 nM
CCOC(=O)OC(C)OC1=C(C(=O)Nc2ccccn2)N(C)S(=O)(=O)c2ccccc21 (stereo not given) [AMPIROXICAM],Not Active,Not Active,Not Active,Not Active,Not Active,Not Active,Not Active,Not Active,Not Active,Not Active,Not Active,Not Active,Not Active,–
